PubChem BioAssay (NCI)
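How tested: cells in 96-well plates exposed to compound for 48 hours at five concentrations. At the TGI there is no net growth.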

Key:
Assay in all cases: NCI tumour cell line growth inhibition, 48 h
A549 NSCLC = test system: A549 NSCLC
EKVX NSCLC = test system: EKVX NSCLC
HCC-2998 colon = test system: HCC-2998 colon
HCT-116 colon = test system: HCT-116 colon
HCT-15 colon = test system: HCT-15 colon
HOP-62 NSCLC = test system: HOP-62 NSCLC
HOP-92 NSCLC = test system: HOP-92 NSCLC
M14 melanoma = test system: M14 melanoma
NCI-H226 lung = test system: NCI-H226 lung
NCI-H522 lung = test system: NCI-H522 lung
SF-539 CNS = test system: SF-539 CNS
SK-MEL-2 melanoma = test system: SK-MEL-2 melanoma
SW-620 colon = test system: SW-620 colon
TK-10 renal = test system: TK-10 renal
UACC-62 melanoma = test system: UACC-62 melanoma
HL-60(TB) leukemia = test system: HL-60(TB) leukemia

| SMILES | TGI (A549 NSCLC) [µM] | TGI (EKVX NSCLC) [µM] | TGI (HCC-2998 colon) [µM] | TGI (HCT-116 colon) [µM] | TGI (HCT-15 colon) [µM] | TGI (HOP-62 NSCLC) [µM] | TGI (HOP-92 NSCLC) [µM] | TGI (M14 melanoma) [µM] | TGI (NCI-H226 lung) [µM] | TGI (NCI-H522 lung) [µM] | TGI (SF-539 CNS) [µM] | TGI (SK-MEL-2 melanoma) [µM] | TGI (SW-620 colon) [µM] | TGI (TK-10 renal) [µM] | TGI (UACC-62 melanoma) [µM] | TGI (HL-60(TB) leukemia) [µM] |
| --- | --- | --- | --- | --- | --- | --- | --- | --- | --- | --- | --- | --- | --- | --- | --- | --- |
| O=c1[nH]nc2c3n[nH]c(=O)n3c3ccccc3n12 | > 100 | > 100 | > 100 | > 100 | > 100 | > 100 | > 100 | > 100 | > 100 | > 100 | > 100 | > 100 | > 100 | > 100 | > 100 |  |
| CC(=O)NC1C(OCc2ccccc2)OC(CO)C(O)C1OCC(=O)NC(C)C(=O)NC(CCC(=O)OCCNC(=O)c1cccc2cc3ccccc3nc12)C(N)=O (stereo not given) | 23.4 | 62.2 | 40.4 | 31.8 | 33.6 | 68.9 | 59 | 42.1 | 44.7 | 34 |  | 70.9 | > 100 | 41.6 | 34.3 | 57.7 |
| COc1ccccc1OCc1nnc(SCC(=O)O)n1-c1ccccc1 | > 100 | > 100 | > 100 | > 100 | > 100 | > 100 | > 100 | > 100 | > 100 | > 100 | > 100 | > 100 |  | > 100 | > 100 | > 100 |
| COc1cc2c(cc1OC)[C@]1(O)C(=O)c3ccc4c(c3O[C@@H]1CO2)C[C@H](C(C)(C)O)O4 | > 100 | > 100 | > 100 | > 100 |  | > 100 | > 100 | > 100 |  | > 100 | > 100 | > 100 | > 100 | > 100 | > 100 | > 100 |
| COC(=O)c1ccc(/C=N/c2cc(C)nn2-c2ccccc2)cc1 | > 100 | > 100 | 8.05 | > 100 | > 100 | > 100 | > 100 | > 100 | > 100 | > 100 | > 100 | > 100 | > 100 | 6.18 | > 100 | > 100 |
| O=C(Nc1ccccc1)N1CC(CN2CCN(c3ccccc3)CC2)OC1=O (stereo not given) | > 100 | > 100 | > 100 | > 100 | > 100 | > 100 | > 100 | > 100 | > 100 | > 100 |  | > 100 | > 100 | > 100 | > 100 | > 100 |
| CCOC(=O)C1C(=O)CC(C)(O)C(C(=O)OCC)C1c1ccc(O)c(OC)c1 (stereo not given) | > 100 | > 100 | > 100 | > 100 | > 100 | > 100 | > 100 |  | > 100 | > 100 |  | > 100 | > 100 | > 100 | > 100 | > 100 |
| CCN(CC)CC1CCCCN1CC(=O)N1c2ccc(Br)cc2C(=O)Nc2cccnc21 (stereo not given) | > 100 | > 100 | > 100 | > 100 | > 100 | > 100 | > 100 | > 100 | > 100 | > 100 | > 100 | > 100 |  | > 100 | > 100 | > 100 |
| O=C(/C=C/c1ccc(O)c(O)c1)Oc1ccccc1 | 59 | > 72.9 | > 58.8 | 34.6 | 36.2 | 49.2 | 47.6 | 55.2 | > 100 | 1.95 | 88.5 | 44 | > 100 | > 100 | 35.9 | 20.1 |
| CCCN(CCC)C(=O)Cc1c2n(c3ccccc13)CCCc1ccccc1-2 | 28.2 | 28.5 | 25.9 | 26.3 | 23.8 | 30.3 | 14.7 | 26.4 | 28.5 | 25.3 | 28.6 | 25.8 | 30.2 | 29.5 | 23 | 37.1 |
| N[C@H]1CCc2c1nc1c(c2-c2ccccc2)CC[C@@H]1N | > 100 | > 100 | 49.2 | 45.6 | > 100 | > 100 | > 100 | 31.1 | > 100 | 30.1 | 31.1 | 40.1 | 27.5 | > 100 |  | 46.4 |
| Cc1ccc2c(c1)C(=O)C1(C2)Cc2ccc(C)cc2C1=O | > 100 | > 100 | > 100 | > 100 | > 100 | > 100 | > 100 | > 100 |  | > 100 | > 100 | > 100 | > 100 | > 100 |  | > 100 |
| CC1=CC(=O)c2cccc(O)c2C1=O | 34.7 | 8.68 | 16.8 | 3.49 | 3.04 | 30.9 | 3.29 | 3.25 | 14.4 | 5.42 | 12.3 | 4.57 | 4.08 | 5.05 | 3.68 | 9.13 |
| C[C@H](C(=O)N1C(=O)O[C@@H](c2ccccc2)[C@H]1C)[C@H](c1ccccc1)N(Cc1ccccc1)OC(=O)c1ccccc1 | > 100 |  | 85.3 | > 100 | > 100 | 52.1 | > 100 | > 100 | > 100 | > 100 | > 100 | 73.7 | > 100 | > 100 | > 100 | > 100 |
| COc1ccc(CCNC(=O)Cc2ccccc2CCO)cc1OC | > 100 | > 100 | > 100 | > 100 | > 100 | > 100 | > 100 | > 100 | > 100 | > 100 | > 100 | > 100 | > 100 | > 100 | > 100 | > 100 |
| COc1ccc(-c2c(N)n(-c3cc(OC)cc(OC)c3)c(=O)c3cc([N+](=O)[O-])ccc23)cc1 | > 100 | > 100 | > 100 | > 100 | > 100 | > 100 | 34.1 | > 100 | > 100 | > 100 | > 100 | > 100 | > 100 | > 100 | > 100 | > 100 |
| COC(=O)c1c(C)cccc1C1CN=NC12Cc1c(C)cccc1C2=O (stereo not given) | > 100 | 79.7 | > 100 | > 100 | > 100 | > 100 | > 100 | > 100 | > 100 | 91.7 | > 100 | > 100 | > 100 | > 100 | > 100 | > 100 |
| COc1ccc(OC)c2c1C(=O)C(Cl)=C(Cl)C2=O | 56.4 | 21.9 | 31.2 | 3.86 | 10.7 |  | 8.14 | 6.46 | 42.2 | 4.68 | 11.6 | 8.73 | 3.6 | 9.83 | 6.9 | > 100 |
| Cc1ccc(-c2n[nH]c(=O)n2N)cc1 | > 100 | > 100 | > 100 | > 100 | > 100 | > 100 | > 100 | > 100 | > 100 | > 100 | > 100 | > 100 | > 100 | > 100 | > 100 | > 100 |
| COC(=O)c1ccc(NCc2cc(O)c3ccccc3c2O)cc1 | 23.4 | 48.7 | 39.9 | 38.4 | 28.8 | 32.5 | 9.97 |  | 40 | 43.8 | 28.6 | 43.2 | 32.3 | 39.1 | 10.3 | > 28.5 |
| S=c1scc(-c2ccc(Cl)cc2)n1OC1CCCC1 | > 100 | > 100 | 71.2 | > 100 | > 100 | > 100 | > 100 | > 100 |  | 54.2 | 35.5 | 44.6 | > 100 | > 100 | > 100 | 71.3 |
| COC(=O)c1ccccc1C1CN=NC12Cc1c(C)c3c(c(C)c1C2=O)CCC3 (stereo not given) | > 100 | > 100 | > 100 | > 100 | > 100 | > 100 | > 100 | > 100 | > 100 | > 100 | > 100 | > 100 | > 100 | 90.8 | > 100 | > 100 |
| O=C1c2ccccc2C(=O)c2[nH]c(=O)c(/C=N/Nc3ccc([N+](=O)[O-])cc3)nc21 | > 100 | > 73 | 4.78 | > 73.1 | > 38.8 | > 21.3 | 38 | 5.01 | 4.45 | 13 | 19.2 | 12.1 | > 45.4 | 51.2 | 4.16 |  |
| c1ccc(N=C2SC(c3ccccc3)CN2C23CC4CC(CC(C4)C2)C3)cc1 (stereo not given) | > 100 | > 100 | > 100 | > 100 | > 100 | > 100 | > 100 | > 100 | > 100 | > 100 | > 100 | > 100 | > 100 | > 100 |  | > 100 |
| COc1cccc(N2CCc3c(C)c(C#N)c4nc5ccccc5n4c32)c1 | > 100 |  | > 100 | > 100 | > 100 | > 100 | > 100 | > 100 | > 100 | > 100 | > 100 | > 100 | > 100 | > 100 | > 100 | > 100 |
| CCOC(=O)c1c(N2CCOCC2)[nH]c(=O)c(C(c2ccc(N(C)C)cc2)c2c(O)c(C(=O)OCC)c(N3CCOCC3)[nH]c2=O)c1O | > 100 | > 100 | > 100 | > 100 | > 100 | > 100 | > 100 | > 100 | > 100 | > 100 | > 100 | > 100 | > 100 | > 100 | > 100 |  |
| CNC(=S)N/N=C(\C)c1ccc(OC)cc1O | > 100 | > 100 | > 100 | > 100 | > 100 | > 100 | > 100 | > 100 | > 100 | > 100 | > 100 | > 100 | > 100 |  | > 100 | > 100 |
| C[C@@H]1O[C@@H]2OCC[C@@H]2C2=C1C(=O)c1ccccc1C2=O | 41.9 | 39.9 | 35.4 |  | 44.5 | 31.5 | 18.9 | 14.2 | 61.5 | 20.3 | 22.3 | 25.7 | 15.2 | 34.1 | 17.4 | 19.1 |
| CN1C(=O)c2cccc3c([N+](=O)[O-])ccc(c23)C1=O | 26.8 | 29.4 | 17.4 | 18.9 | 11 | 24.7 | 19.9 | 23.1 | 4.05 | 2.91 | 26.2 | 24.8 | 6.12 | 15.6 | 4.03 |  |
| N#CC1(C#N)C(c2ccccc2)NC23CCCCC2C1(C#N)C(=O)N3 (stereo not given) | > 100 | > 100 | > 100 | > 100 | > 100 | > 100 | > 100 | > 100 | > 100 | > 100 | > 100 | > 100 | > 100 |  | > 100 |  |
